Data: PubChem BioAssay (NCI)
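Briefly, cells in 96-well plates were exposed to five compound concentrations for 48 h, and endpoints were estimated by linear interpolation. Definition used: TGI = concentration required for complete inhibition of growth.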

Legend:
Test in all cases: NCI-60 cell line screen, 48 h
786-0 renal = tested on: 786-0 renal
A498 renal = tested on: A498 renal
A549 NSCLC = tested on: A549 NSCLC
ACHN renal = tested on: ACHN renal
CAKI-1 renal = tested on: CAKI-1 renal
CCRF-CEM leukemia = tested on: CCRF-CEM leukemia
COLO 205 colon = tested on: COLO 205 colon
DLD-1 colon = tested on: DLD-1 colon
DMS 114 small cell lung = tested on: DMS 114 small cell lung
DMS 273 small cell lung = tested on: DMS 273 small cell lung
EKVX NSCLC = tested on: EKVX NSCLC
HCC-2998 colon = tested on: HCC-2998 colon
HCT-116 colon = tested on: HCT-116 colon
HCT-15 colon = tested on: HCT-15 colon
HL-60(TB) leukemia = tested on: HL-60(TB) leukemia
HOP-18 NSCLC = tested on: HOP-18 NSCLC
HOP-62 NSCLC = tested on: HOP-62 NSCLC
HOP-92 NSCLC = tested on: HOP-92 NSCLC
HT29 colon = tested on: HT29 colon
IGROV1 ovarian = tested on: IGROV1 ovarian
K-562 leukemia = tested on: K-562 leukemia
KM12 colon = tested on: KM12 colon
KM20L2 colon = tested on: KM20L2 colon
LOX IMVI melanoma = tested on: LOX IMVI melanoma
LXFL 529 NSCLC = tested on: LXFL 529 NSCLC
M14 melanoma = tested on: M14 melanoma
MALME-3M melanoma = tested on: MALME-3M melanoma
MOLT-4 leukemia = tested on: MOLT-4 leukemia
NCI-H226 lung = tested on: NCI-H226 lung
NCI-H23 lung = tested on: NCI-H23 lung
NCI-H460 lung = tested on: NCI-H460 lung
NCI-H522 lung = tested on: NCI-H522 lung
OVCAR-3 ovarian = tested on: OVCAR-3 ovarian
OVCAR-4 ovarian = tested on: OVCAR-4 ovarian
OVCAR-5 ovarian = tested on: OVCAR-5 ovarian
OVCAR-8 ovarian = tested on: OVCAR-8 ovarian
RPMI-8226 leukemia = tested on: RPMI-8226 leukemia
RXF-631 renal = tested on: RXF-631 renal
SF-268 CNS = tested on: SF-268 CNS
SF-295 CNS = tested on: SF-295 CNS
SK-MEL-2 melanoma = tested on: SK-MEL-2 melanoma
SK-MEL-28 melanoma = tested on: SK-MEL-28 melanoma
SK-MEL-5 melanoma = tested on: SK-MEL-5 melanoma
SK-OV-3 ovarian = tested on: SK-OV-3 ovarian
SN12C renal = tested on: SN12C renal
SNB-19 CNS = tested on: SNB-19 CNS
SNB-75 CNS = tested on: SNB-75 CNS
SNB-78 CNS = tested on: SNB-78 CNS
SW-620 colon = tested on: SW-620 colon
TK-10 renal = tested on: TK-10 renal
U251 CNS = tested on: U251 CNS
UACC-257 melanoma = tested on: UACC-257 melanoma
UACC-62 melanoma = tested on: UACC-62 melanoma
UO-31 renal = tested on: UO-31 renal
XF 498 CNS = tested on: XF 498 CNS
M19-MEL melanoma = tested on: M19-MEL melanoma
RXF 393 renal = tested on: RXF 393 renal
SF-539 CNS = tested on: SF-539 CNS

Compound: COc1ccc(CCN=C2CCC(C(=O)NCCc3ccc(OC)c(OC)c3)N2)cc1OC (stereo unspecified)
- TGI (786-0 renal): > 100 µM
- TGI (A498 renal): > 100 µM
- TGI (A549 NSCLC): > 100 µM
- TGI (ACHN renal): > 100 µM
- TGI (CAKI-1 renal): > 100 µM
- TGI (CCRF-CEM leukemia): > 100 µM
- TGI (COLO 205 colon): > 100 µM
- TGI (DLD-1 colon): > 100 µM
- TGI (DMS 114 small cell lung): > 100 µM
- TGI (DMS 273 small cell lung): > 100 µM
- TGI (EKVX NSCLC): > 100 µM
- TGI (HCC-2998 colon): > 100 µM
- TGI (HCT-116 colon): > 100 µM
- TGI (HCT-15 colon): > 100 µM
- TGI (HL-60(TB) leukemia): > 100 µM
- TGI (HOP-18 NSCLC): > 100 µM
- TGI (HOP-62 NSCLC): > 100 µM
- TGI (HOP-92 NSCLC): > 100 µM
- TGI (HT29 colon): > 100 µM
- TGI (IGROV1 ovarian): > 100 µM
- TGI (K-562 leukemia): > 100 µM
- TGI (KM12 colon): > 100 µM
- TGI (KM20L2 colon): > 100 µM
- TGI (LOX IMVI melanoma): > 100 µM
- TGI (LXFL 529 NSCLC): > 100 µM
- TGI (M14 melanoma): > 100 µM
- TGI (MALME-3M melanoma): > 100 µM
- TGI (MOLT-4 leukemia): > 100 µM
- TGI (NCI-H226 lung): > 100 µM
- TGI (NCI-H23 lung): > 100 µM
- TGI (NCI-H460 lung): > 100 µM
- TGI (NCI-H522 lung): > 100 µM
- TGI (OVCAR-3 ovarian): > 100 µM
- TGI (OVCAR-4 ovarian): > 100 µM
- TGI (OVCAR-5 ovarian): > 100 µM
- TGI (OVCAR-8 ovarian): > 100 µM
- TGI (RPMI-8226 leukemia): > 100 µM
- TGI (RXF-631 renal): > 100 µM
- TGI (SF-268 CNS): > 100 µM
- TGI (SF-295 CNS): > 100 µM
- TGI (SK-MEL-2 melanoma): > 100 µM
- TGI (SK-MEL-28 melanoma): > 100 µM
- TGI (SK-MEL-5 melanoma): > 100 µM
- TGI (SK-OV-3 ovarian): > 100 µM
- TGI (SN12C renal): > 100 µM
- TGI (SNB-19 CNS): > 100 µM
- TGI (SNB-75 CNS): > 100 µM
- TGI (SNB-78 CNS): > 100 µM
- TGI (SW-620 colon): > 100 µM
- TGI (TK-10 renal): > 100 µM
- TGI (U251 CNS): > 100 µM
- TGI (UACC-257 melanoma): > 100 µM
- TGI (UACC-62 melanoma): > 100 µM
- TGI (UO-31 renal): > 100 µM
- TGI (XF 498 CNS): > 100 µM

Compound: COc1ccc(C2CCc3cc4c(cc3/C2=N/OC(C)=O)OCO4)cc1OC (stereo unspecified)
- TGI (786-0 renal): > 100 µM
- TGI (A549 NSCLC): 80.1 µM
- TGI (CCRF-CEM leukemia): > 100 µM
- TGI (COLO 205 colon): 63.5 µM
- TGI (DMS 114 small cell lung): 51.9 µM
- TGI (DMS 273 small cell lung): 78.1 µM
- TGI (EKVX NSCLC): > 100 µM
- TGI (HCT-116 colon): 28.1 µM
- TGI (HCT-15 colon): > 100 µM
- TGI (HOP-18 NSCLC): > 100 µM
- TGI (HOP-62 NSCLC): > 100 µM
- TGI (HOP-92 NSCLC): 69.6 µM
- TGI (HT29 colon): > 100 µM
- TGI (IGROV1 ovarian): > 100 µM
- TGI (K-562 leukemia): > 100 µM
- TGI (KM12 colon): 54.8 µM
- TGI (KM20L2 colon): 72.3 µM
- TGI (LOX IMVI melanoma): 33.1 µM
- TGI (LXFL 529 NSCLC): > 100 µM
- TGI (M14 melanoma): 42.2 µM
- TGI (M19-MEL melanoma): 71 µM
- TGI (MALME-3M melanoma): 55.2 µM
- TGI (MOLT-4 leukemia): 52 µM
- TGI (NCI-H226 lung): 43.3 µM
- TGI (NCI-H23 lung): 72.6 µM
- TGI (NCI-H522 lung): 53.4 µM
- TGI (OVCAR-3 ovarian): 55.9 µM
- TGI (OVCAR-4 ovarian): > 100 µM
- TGI (OVCAR-5 ovarian): > 100 µM
- TGI (OVCAR-8 ovarian): > 100 µM
- TGI (RPMI-8226 leukemia): 47.8 µM
- TGI (RXF 393 renal): 54 µM
- TGI (RXF-631 renal): > 100 µM
- TGI (SF-268 CNS): > 100 µM
- TGI (SF-295 CNS): 82.2 µM
- TGI (SF-539 CNS): 35.7 µM
- TGI (SK-MEL-2 melanoma): 64.7 µM
- TGI (SK-MEL-28 melanoma): 57.4 µM
- TGI (SK-MEL-5 melanoma): 23 µM
- TGI (SK-OV-3 ovarian): 95.3 µM
- TGI (SN12C renal): > 100 µM
- TGI (SNB-19 CNS): > 100 µM
- TGI (SNB-75 CNS): 75 µM
- TGI (SNB-78 CNS): > 100 µM
- TGI (SW-620 colon): > 100 µM
- TGI (TK-10 renal): > 100 µM
- TGI (U251 CNS): > 100 µM
- TGI (UACC-257 melanoma): 51.6 µM
- TGI (UACC-62 melanoma): 57.7 µM
- TGI (UO-31 renal): 51.1 µM
- TGI (XF 498 CNS): 57.5 µM
